Columns and labels:
[1] = log P determination by LC-MS in the acidic range; assay type: physicochemical; details: LC-MS in the acidic range
From the text: The LC-MS determination in the acidic range is effected at pH 2.7 using 0.1% aqueous formic acid and acetonitrile (contains 0.1% formic acid) as eluents, linear gradient from 10% acetonitrile to 95% acetonitrile. Alternatively, the determination is effected in the acidic range at pH 2.3 using 0.1% aqueous phosphoric acid and acetonitrile as eluents; linear gradient from 10% acetonitrile to 95% acetonitrile.

[2] = system: Myzus persicae; assay: Myzus persicae - sachet test; assay type: in vivo; details: 100% = all animals killed
Summary of the method: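 Active ingredient dissolved with 2% N-methylpyrrolidone and 2% diacetone alcohol, diluted in water, then pipetted into nutrient medium. Plate sealed and paired with a plate carrying green peach aphids. Kill in % scored after the set time (100% = all dead, 0% = none dead).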

[3] = system: Myzus persicae; assay: Myzus persicae - spray test; assay type: in vivo; details: application rate of 500 g/ha; after 6 days; sprayed Chinese cabbage leaf discs infested by all stages; 100% = all aphids killed
Description: Myzus persicae—spray test Solvent: 78 parts by weight of acetone • • 1.5 parts by weight of dimethylformamide Emulsifier: 0.5 part by weight of alkylaryl polyglycol ether To produce an appropriate active ingredient formulation, 1 part by weight of active ingredient is mixed with the specified amounts of solvent and emulsifier, and the concentrate is diluted to the desired concentration with emulsifier-containing water. Discs of Chinese cabbage leaves (Brassica pekinensis) infested by all stages of the green peach aphid (Myzus persicae) are sprayed with an active ingredient formulation of the desired concentration. After 6 days, the efficacy in % is determined. 100% means that all the aphids have been killed; 0% means that no aphids have been killed.

[4] = application rate of 6 ppm in nutrient medium
[5] = application rate of 30 ppm in nutrient medium

| Compound | log P (acid) [1] | efficacy (kill in %) [2, 4] [%] | efficacy (kill in %) [2, 5] [%] | efficacy in % [3] [%] |
| --- | --- | --- | --- | --- |
| Cc1cc(NC(=O)c2cccnc2)nn1C(=O)NCCOC(F)(F)F [Compound I-1-172] | 1.91 | 100 | 100 | 90 |
| COCCn1nc(NC(=O)c2cccnc2)cc1C [Compound I-1-173] | 0.79 | 80 | 80 | 100 |
| Cc1cc(NC(=O)c2cccnc2)nn1CC1CC1 [Compound I-1-174] | 1.31 | 100 | 100 | 100 |
| COCn1nc(NC(=O)c2cccnc2)cc1C [Compound I-1-175] | 0.71 | 100 | 100 | 100 |
| Cc1cc(NC(=O)c2cccnc2)nn1CC1CCCO1 (centres unmarked) [Compound I-1-176] | 1.06 | 80 | 80 | 100 |
| COCn1nc(N(C)C(=O)c2cccnc2)cc1C [Compound I-1-178] | 0.7 |  | 80 | 100 |
| Cc1cc(NC(=O)c2cccnc2)nn1CC1OCCO1 [Compound I-1-180] | 0.81 | 80 | 100 | 100 |
| Cc1cc(N(C)C(=O)c2cccnc2)nn1CC1CCCO1 (centres unmarked) [Compound I-1-181] | 1.05 |  | 80 | 90 |
| Cc1cc(NC(=O)c2cccnc2)nn1CCS(C)(=O)=O [Compound I-1-182] | 0.49 | 100 | 100 | 100 |
| Cc1cc(NC(=O)c2cccnc2)nn1CC[S+](C)[O-] (centres unmarked) [Compound I-1-183] | 0.25 | 100 | 100 | 90 |
| CSCCn1nc(NC(=O)c2cccnc2)cc1C [Compound I-1-184] | 1.22 | 100 | 100 | 90 |
| Cc1cc(NC(=O)c2cccnc2)nn1CCC#N [Compound I-1-185] | 0.57 | 100 | 100 | 100 |
| Cc1cc(N(C)C(=O)c2cccnc2)nn1CC[S+](C)[O-] (centres unmarked) [Compound I-1-186] | 0.16 | 100 | 100 | 100 |
| CSCCn1nc(N(C)C(=O)c2cccnc2)cc1C [Compound I-1-187] | 1.17 | 100 | 100 | 90 |
| Cc1cc(NC(=O)c2cccnc2)nn1CCC(F)(F)F [Compound I-1-188] | 1.45 | 100 | 100 | 90 |
| CCSCCn1nc(NC(=O)c2cccnc2)cc1C [Compound I-1-189] | 1.53 | 100 | 100 | 90 |
| CC[S+]([O-])CCn1nc(NC(=O)c2cccnc2)cc1C (centres unmarked) [Compound I-1-190] | 0.46 | 100 | 100 | 100 |
| COC(=O)OCCn1nc(NC(=O)c2cccnc2)cc1C [Compound I-1-191] | 0.98 | 100 | 100 | 90 |
| Cc1ccn(Cn2nc(NC(=O)c3cccnc3)cc2C)n1 [Compound I-1-192] | 1.16 | 100 | 100 | 100 |
| O=C(Nc1cc(C(F)(F)F)n(Cc2ncccn2)n1)c1cccnc1 [Compound I-1-196] | 1.46 | 100 | 100 | 90 |
| Cn1ccc(NC(=O)c2cccnc2)n1 [Compound I-1-198] | 0.22 | 100 | 100 | 90 |
| Cc1cc(NC(=O)c2cccnc2)nn1-c1cccc(F)c1 [Compound I-1-202] | 1.85 | 80 | 100 | 90 |

| Compound | log P (acid) [1] | efficacy (kill in %) [2, 4] [%] | efficacy (kill in %) [2, 5] [%] | efficacy in % [3] [%] |
| --- | --- | --- | --- | --- |
| Cc1cc(NC(=O)c2cccnc2)nn1-c1ccc(F)cc1 [Compound I-1-203] | 1.79 | 80 | 100 | 90 |
| Cc1cc(NC(=O)c2cccnc2)nn1C1CCCCC1 [Compound I-1-204] | 2.02 | 80 | 80 | 90 |
| Cc1c(F)c(NC(=O)c2cccnc2)nn1Cc1ncccn1 [Compound I-1-211] | 0.72 | 100 | 100 | 90 |
| Cc1c(Cl)c(NC(=O)c2cccnc2)nn1Cc1ncccn1 [Compound I-1-212] | 0.94 | 100 | 100 | 90 |
| Cc1cc(NC(=O)c2cccnc2)nn1C(C)C#N (centres unmarked) [Compound I-1-214] | 0.92 | 100 | 100 | 100 |
| O=C(Nc1nn(Cc2ncccn2)c2ccccc12)c1cccnc1 [Compound I-1-215] | 1.16 | 100 | 100 | 90 |
| O=C(Nc1nn(Cc2ncccn2)c2ccccc12)c1cncc(F)c1 [Compound I-1-216] | 1.54 | 100 | 100 | 90 |
| Cc1cc(NC(=O)c2cccnc2)nn1C(C)C1CC1 (centres unmarked) [Compound I-1-218] | 1.63 | 100 | 100 | 100 |
| Cc1ccnn1Cn1nc(NC(=O)c2cccnc2)cc1C [Compound I-1-220] | 1.17 | 100 | 100 | 90 |
| Cn1nc(NC(=O)c2cccnc2)cc1C(F)F [Compound I-1-221] | 1.04 | 100 | 100 | 90 |
| Cc1cc(NC(=O)c2cccnc2)nn1Cn1ccnn1 [Compound I-1-223] | 0.65 | 100 | 100 | 100 |
| Cc1cc(NC(=O)c2cccnc2)nn1Cn1cncn1 [Compound I-1-224] | 0.58 | 100 | 100 | 100 |
| Cc1cc(NC(=O)c2cccnc2)nn1Cn1cccn1 [Compound I-1-225] | 0.94 | 100 | 100 | 100 |
| Cc1cnn(Cn2nc(NC(=O)c3cccnc3)cc2C)c1 [Compound I-1-226] | 1.24 | 100 | 100 | 100 |
| Cc1cc(NC(=O)c2cccnc2)nn1Cn1nccc1C(F)(F)F [Compound I-1-227] | 1.72 | 100 | 100 | 90 |
| Cc1cc(NC(=O)c2cccnc2)nn1Cn1ccc(C(F)(F)F)n1 [Compound I-1-228] | 1.86 | 100 | 100 | 90 |
| Cc1cc(NC(=O)c2cccnc2)nn1C1CCCC1 [Compound I-1-229] | 1.74 | 100 | 100 | 90 |
| Cc1cc(NC(=O)c2cccnc2)nn1S(=O)(=O)N(C)C [Compound I-1-231] | 1.52 | 100 | 100 | 90 |
| Cc1cc(NC(=O)c2cccnc2)nn1C(=O)Oc1ccccc1 [Compound I-1-233] | 2 | 100 | 100 | 90 |
| Cc1cc(NC(=O)c2cccnc2)nn1CSc1ncccn1 [Compound I-1-234] | 1.25 | 100 | 100 | 90 |
| Cc1cc(NC(=O)c2cccnc2)nn1CC1CC1(Cl)Cl (centres unmarked) [Compound I-1-237] | 1.84 | 100 | 100 | 90 |
